Laboratory results published in BindingDB's records for doi:10.1021/jm970059p (University of Illinois At Chicago, 1998).

test: Inhibition of [3H]-TCP binding to PCP receptor obtained from tissue homogenate preparation of fresh whole rat brain minus cerebellum

Compound	IC50 [µM]
c1ccc2c(c1)C1CCCCC21N1CCCCC1 (stereo not drawn) [1-(1,3,4,8b-Tetrahydro-2H-biphenylen-4a-yl)-piperidine]	4.27
c1ccc2c(c1)C1CCC2(N2CCCCC2)C1 (stereo not drawn) [1-(3,4-Dihydro-2H-1,4-methano-naphthalen-1-yl)-piperidine]	107
c1ccc2c(c1)C1CCC2(N2CCCCC2)CC1 [1-Tricyclo[6.2.2.0*2,7*]dodeca-2(7),3,5-trien-1-yl-piperidine]	118
